This note sets out measurements from PubChem BioAssay AID449764 (Southern Research Specialized Biocontainment Screening …, 2010).

The subject of this experiment is Mycobacterium tuberculosis H37Rv growth inhibition, no glycerol. Description: Confirmatory growth inhibition assay, Mycobacterium tuberculosis H37Rv, absence of glycerol (AID 449764).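 As to all read-outs here: growth read after 7 days of incubation.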 The note with it: for IC90: measured here: IC90 growth inhibition.

As a reminder, the IC50 is the point on the concentration scale where inhibition reaches its midpoint. In general, IC90 refers to the concentration at which the effect reaches the 90% level. A high value points to a need for much substance. On to `O=[N+]([O-])c1cc(-c2ncccn2)c([N+](=O)[O-])s1`, for which the IC50 is 33.1 µM and the IC90 is 38.8 µM.
On to `COC(=O)c1c(NC(=O)CCl)sc(C(=O)N2CCOCC2)c1C`, for which the IC50 was 10 µM and the IC90 was found to be 23.1 µM.
On the same counts, the results for `O=C1CC(/C=C/c2ccc(Cl)cc2)=Nc2ccccc2N1` are 12.2 µM and 14.2 µM.
On the same counts, the results for `COc1ccc2c(c1)CCc1c(C(=O)Nc3c(C)n(C)n(-c4ccccc4)c3=O)noc1-2` are 89.6 µM and above 100 µM.
On the same counts, the results for `CCc1ccc2c(c1)C1(C(=O)N2)N2CCCC2C(C(=O)c2ccc3ccccc3c2)C12C(=O)Nc1ccccc12` (stereo unspecified) are 23.9 µM and 36.2 µM.
For `CCOC(=O)c1ccc(-c2c(-c3ccc4c(c3)OCO4)noc2C)cc1F`, the IC50 was 53.5 µM and the IC90 is above 100 µM.
With `CCN1CSC(=S)N(Cc2ccccc2)C1`, the IC50 is 32.5 µM and the IC90 is 60.7 µM.
Consider `Cc1cccc(NC(=O)c2nc[nH]c2C(=O)N[C@H](C)c2ccccc2)c1`, for which the IC50 is 10.2 µM and the IC90 was above 100 µM.
On the same counts, the results for `Cc1cc(/C=N\NC(=O)c2cccs2)c(C)n1-c1ccc2ncccc2c1` are 36.8 µM and 60.2 µM.
On the same counts, the results for `Cc1ccc(/C(N)=N/OC(=O)N2c3ccccc3Sc3ccccc32)cc1` are 92.7 µM and above 100 µM.
For the compound `c1cc(Nc2cccc3nccnc23)c2nccnc2c1`, the IC50 is 24.4 µM and the IC90 amounted to 28.3 µM.
For the compound `COc1cc(C(=O)N/N=C/c2cc([N+](=O)[O-])cs2)cc(OC)c1OC`, the IC50 is 8.58 µM and the IC90 was above 100 µM.
Take `CNc1ccccc1C(=O)OC(C)C(=O)Nc1ccc(Cl)cn1` (stereo unspecified): the IC50 is 35.3 µM and the IC90 is 65.3 µM.
As to `O=C1/C(=C\c2ccncc2)CCc2ccccc21`, the IC50 was 45.9 µM and the IC90 came to 49.7 µM.
On to `CCOc1ccc(CN(C)CC(O)COC(c2ccc(OC)cc2)c2ccc(OC)cc2)cc1` (stereo unspecified), for which the IC50 was 16.1 µM and the IC90 was 18.9 µM.
On the same counts, the results for `S=C(NN=C1CCN(Cc2ccccc2)CC1)NC1CCCCC1` are 43.6 µM and 47 µM.
On the same counts, the results for `O=C(c1ccccc1)c1nn(-c2ccc(Cl)cc2)c(=O)cc1C(F)(F)F` are 20.1 µM and 31.1 µM.
In the case of `OC(CNCC(c1ccc(Cl)cc1Cl)c1c[nH]c2ccccc12)c1ccccc1` (stereo unspecified), the IC50 is 22.9 µM and the IC90 is 26.2 µM.
For `CCCOC(=O)/C(=C\c1ccc([N+](=O)[O-])o1)NC(=O)c1ccccc1`, the IC50 was 24.2 µM and the IC90 is above 100 µM.
On to `O=C(CSc1nn(-c2ccc(F)cc2)c(=S)s1)NCC1CCCO1` (stereo unspecified), for which the IC50 is 20.7 µM and the IC90 was above 100 µM.
As for `Nc1nonc1C(=O)NCCNCc1c(OCc2ccccc2F)ccc2ccccc12`, the IC50 is 39.5 µM and the IC90 worked out at 54.4 µM.
On the same counts, the results for `Cc1ccc(C(=O)ONc2ccc(N=O)cc2)cc1` are 57.3 µM and above 100 µM.
As for `O=C(NCC1CC1)c1cc([N+](=O)[O-])cc([N+](=O)[O-])c1`, the IC50 was 6.57 µM and the IC90 came out at 11.2 µM.
On to `CCc1ccc(Nc2n[n+](C)c(-c3ccncc3)s2)cc1`, for which the IC50 was 42.1 µM and the IC90 was found to be 47.6 µM.
On to `O=C(COC(=O)C1=COCCO1)Nc1cccc(Oc2ccccc2)c1`, for which the IC50 is 9.49 µM and the IC90 was 37.2 µM.
On to `CCC1CSC(Nc2ccc(C(=O)/C=C/c3cccc(C)c3)cc2)=N1` (stereo unspecified), for which the IC50 is 20.5 µM and the concentration for an effect of 90% (IC90) stood at 35.9 µM.
In the case of `O=C(NCc1ccccn1)C(=O)Nc1nc(C23CC4CC(CC(C4)C2)C3)cs1`, the IC50 is 6.5 µM and the IC90 amounted to 14.7 µM.
On to `COc1ccc(NCc2nc3ccccc3n2CCOc2ccccc2)cc1`, for which the IC50 was 69.5 µM and the IC90 was 88.6 µM.
Consider `COCCCN=C1NN=C(c2cc(C)n(Cc3ccco3)c2C)CS1`, for which the IC50 is 70.7 µM and the IC90 is 92.2 µM.
On the same counts, the results for `COc1ccccc1NC(=O)C(C)OC(=O)/C=C/c1ccc2ccccc2n1` (stereo unspecified) are 6.99 µM and 13.1 µM.
On the same counts, the results for `C=C1CCC[C@]2(C)C[C@H]3OC(=O)C(CNC(C)CCCC(C)C)[C@H]3CC12` (stereo partly specified) are 23.4 µM and 26.2 µM.
Take `COc1ccc(N(CC(=O)Nc2cc(Cl)ccc2C)S(=O)(=O)c2c(C)n[nH]c2C)cc1`: the IC50 is 40.5 µM and the IC90 is 52.7 µM.
On to `C=CCS/C(N)=N\N=C\c1c(O)ccc2ccccc12`, for which the IC50 was 35.6 µM and the IC90 is 55.4 µM.
On the same counts, the results for `CN(C)c1ccc(-c2cc(O)c3ncccc3c2)cc1` are 2.63 µM and 3.53 µM.
On the same counts, the results for `CCCC1CC(C)(c2csc(Nc3ccc(OCC)cc3)n2)OC1=O` (stereo unspecified) are 35.3 µM and 44.9 µM.
On the same counts, the results for `COc1cccc(-c2cc3nc4c(c(NCC(C)(C)CN(C)C)n3n2)CCCC4)c1` are 27.5 µM and 36.3 µM.
Turning to `COc1cccc(C2C3=C(N=c4s/c(=C\c5cccc(O)c5)c(=O)n42)c2ccccc2CC3)c1OC` (stereo unspecified), the IC50 is 22.7 µM and the IC90 came out at 25.6 µM.
For `CC(NCCCOc1cccc2ccccc12)c1ccccc1` (stereo unspecified), the IC50 was 25.1 µM and the IC90 amounted to 28 µM.
On the same counts, the results for `CCCCCCCNC(=O)c1ccc(N2CCC3(CC2)OCCO3)c([N+](=O)[O-])c1` are 48.3 µM and 67.2 µM.
On the same counts, the results for `O=C(CCc1nnc(CCCc2ccccc2)o1)NCCCC1CCCC1` are 21.5 µM and 24.9 µM.
`Cc1ccc(CN2C3CCCC2CC(NC(=S)NCc2ccccc2)C3)cc1` (stereo unspecified): the IC50 was 41.1 µM and the IC90 is 75.6 µM.
On the same counts, the results for `O=C1C2C(C(=O)N1/N=C/c1ccc([N+](=O)[O-])o1)C1C=CC2C12CC2` (stereo unspecified) are 32.3 µM and 52.8 µM.
On the same counts, the results for `O=C(NC(=S)N1CCc2ccccc21)c1ccc(Br)o1` are 10.5 µM and 15.5 µM.
On the same counts, the results for `Cc1ccc(S(=O)(=O)/N=C(\CCl)N2CCOCC2)cc1` are 18.6 µM and 27.5 µM.
In the case of `Cc1ccccc1N/N=C/c1c(C)nc2ccccn12`, the IC50 was 57.8 µM and the IC90 is 72.5 µM.
Turning to `Cc1cc2c(cc1C)CSC(c1c(O)ccc3ccccc13)SC2`, the IC50 is 61.2 µM and the IC90 was above 100 µM.
For `CCCCCCCCCCCCCCCC[N+](C)(C)CC`, the IC50 is 36.1 µM and the IC90 is 48.4 µM.
For the compound `CCCn1nnc(NC(=O)COc2ccc(CC)cc2)n1`, the IC50 is 48.4 µM and the IC90 was above 100 µM.
On the same counts, the results for `CCOC(=O)Cn1c(C)c(Br)c(=O)c2cccc(C)c21` are 23 µM and 26.6 µM.
On the same counts, the results for `N[C@@H](CCl)C(=O)O` are 35.4 µM and 55.2 µM.
On the same counts, the results for `CC(=O)n1cc(N(C(=O)CCl)c2ccc(Cl)cc2)c2ccccc21` are 3.7 µM and 6.76 µM.
For the compound `Cc1ccc(NC(=O)c2cnc(SCC(=O)NCC3CCCO3)n(C)c2=O)cc1C` (stereo unspecified), the half-inhibitory concentration (IC50) was 32 µM and the IC90 is above 100 µM.
On the same counts, the results for `CCCCCOc1ccc(NC2=CC(=O)CCC2)cc1` are 77.8 µM and 99 µM.
